The source of these data is patent US10328054B2, “Substituted pyrrolidines as mGluR5 antagonists” (Hua Medicine (Shanghai) Ltd., priority 2015, dated 2019).

The assay deals with recombinant rat mGluR5 (Rattus norvegicus (Rat), UniProt P31424). Briefly: Functional calcium flux assay (FLIPR). The class given is cell-based. The conditions noted are these: HEK293 cells stably expressing recombinant rat mGluR5; inhibition of glutamate-evoked [Ca2+]i increase, 15 min incubation of test compound. Here is the method: For functional assays, HEK293 cells stably expressing recombinant rat mGluR5 were seeded in 384-well plates and dye loaded using Fluo-8. Cells were then washed to remove the un-incorporated dye. Antagonist evaluation was performed following a 15 min incubation of the test compound followed by the addition of submaximal concentration of glutamate. Intracellular calcium ([Ca^2+]i) measurements were performed using a fluorometric imaging plate reader (FLIPR, Molecular Devices). The glutamate-evoked increase in [Ca^2+]i in the presence of the test compounds was compared to the response to glutamate alone (the positive control). Antagonist inhibition curves were fitted with a 4-parameter logistic equation giving IC50 values, and Hill coefficients using an iterative nonlinear curve fitting algorithm.
Sequence of recombinant rat mGluR5 (P31424 21-1203): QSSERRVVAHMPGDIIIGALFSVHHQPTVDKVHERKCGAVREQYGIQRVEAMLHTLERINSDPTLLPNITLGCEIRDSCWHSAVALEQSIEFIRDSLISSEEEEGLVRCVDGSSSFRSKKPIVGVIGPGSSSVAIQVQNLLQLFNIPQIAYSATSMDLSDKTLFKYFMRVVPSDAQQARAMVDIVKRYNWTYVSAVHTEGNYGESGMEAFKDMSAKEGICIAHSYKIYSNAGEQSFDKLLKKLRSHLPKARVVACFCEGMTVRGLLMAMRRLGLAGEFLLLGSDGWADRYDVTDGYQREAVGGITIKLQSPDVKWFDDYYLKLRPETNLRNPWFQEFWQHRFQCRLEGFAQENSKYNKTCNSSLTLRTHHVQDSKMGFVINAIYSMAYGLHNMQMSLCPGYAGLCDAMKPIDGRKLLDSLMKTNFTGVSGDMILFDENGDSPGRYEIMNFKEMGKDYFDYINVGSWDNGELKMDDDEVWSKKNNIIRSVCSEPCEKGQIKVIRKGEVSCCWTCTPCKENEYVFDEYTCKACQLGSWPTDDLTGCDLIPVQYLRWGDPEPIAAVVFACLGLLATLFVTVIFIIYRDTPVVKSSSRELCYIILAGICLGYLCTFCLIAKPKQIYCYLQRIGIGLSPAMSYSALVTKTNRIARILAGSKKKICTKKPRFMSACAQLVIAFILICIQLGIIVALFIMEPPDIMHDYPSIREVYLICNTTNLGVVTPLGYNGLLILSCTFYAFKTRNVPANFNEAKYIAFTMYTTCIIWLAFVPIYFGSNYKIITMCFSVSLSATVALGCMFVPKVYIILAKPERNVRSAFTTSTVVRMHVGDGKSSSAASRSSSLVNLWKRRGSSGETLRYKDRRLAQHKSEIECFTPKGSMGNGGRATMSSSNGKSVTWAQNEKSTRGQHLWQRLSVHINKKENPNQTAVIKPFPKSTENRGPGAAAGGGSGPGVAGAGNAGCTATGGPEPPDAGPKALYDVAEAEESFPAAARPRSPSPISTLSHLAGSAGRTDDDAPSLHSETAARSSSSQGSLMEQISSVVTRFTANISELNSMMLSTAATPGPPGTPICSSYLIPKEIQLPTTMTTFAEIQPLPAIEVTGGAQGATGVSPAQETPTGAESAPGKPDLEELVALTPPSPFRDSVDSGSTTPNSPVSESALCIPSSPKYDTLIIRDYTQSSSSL
The tables below provide IC50 data in this assay. In the activity column, A=IC50>1,000 and <5,000 nM; B=IC50>500 and <1,000 nM and C=IC50<500 nM.
A general note: Calcium flux is commonly read through the fluorescence of an indicator in the cells.
`N#Cc1cc(F)cc(N2CC3CC3(C#Cc3ccccn3)C2)c1` (stereo not drawn) [Example Compound 1, 3-fluoro-S-(1-(pyridin-2-ylethynyl)-3-azabicyclo[3.1.0]hexan-3-yl) benzonitrile]: the 50% inhibitory concentration (IC50) (usually the concentration that inhibits the measured activity by half) is under 500 nM.

Turning to `Fc1ccc(N2CC3CC3(C#Cc3ccccn3)C2)cc1` (stereo not drawn) [Example Compound 2, 3-(4-fluorophenyl)-1-(pyridin-2-ylethynyl)-3-azabicyclo[3.1.0]hexane], the IC50 was under 500 nM.

Regarding `FC(F)(F)Oc1ccc(N2CC3CC3(C#Cc3ccccn3)C2)cc1` (stereo not drawn) [Example Compound 3, 1-(pyridin-2-ylethynyl)-3-(4-(trifluoromethoxy)phenyl)-3-azabicyclo[3.1.0]hexane], the half-inhibitory concentration (IC50) was in the range of 1000 to 5000 nM.

With `Fc1cncc(N2CC3CC3(C#Cc3ccccn3)C2)c1` (stereo not drawn) [Example Compound 4], the concentration for half-maximal inhibition (IC50) was under 500 nM.

For the molecule `O=S(=O)(c1ccccc1)N1CC2CC2(C#Cc2ccccn2)C1` (stereo not drawn) [Example Compound 5, 3-(phenylsulfonyl)-1-(pyridin-2-ylethynyl)-3-azabicyclo[3.1.0]hexane], the IC50 was under 500 nM.

`Fc1ccc(N2CC3CC3(C#Cc3ccccn3)C2)nc1` (stereo not drawn) [Example Compound 6, 3-(5-fluoropyridin-2-yl)-1-(pyridin-2-ylethynyl)-3-azabicyclo[3.1.0]hexane]: the IC50 was under 500 nM.

Consider `N#Cc1cc(F)cc(N2CC3CC3(C#Cc3cnccn3)C2)c1` (stereo not drawn) [Example Compound 7, 3-fluoro-5-(1-(pyrazin-2-ylethynyl)-3-azabicyclo[3.1.0]hexan-3-yl) benzonitrile], for which the IC50 is under 500 nM.

Take `N#Cc1cc(F)cc(N2CC3CC3(C#Cc3ncccn3)C2)c1` (stereo not drawn) [Example Compound 8, 3-fluoro-5-(1-(pyrimidin-2-ylethynyl)-3-azabicyclo[3.1.0]hexan-3-yl) benzonitrile]: the half-maximal inhibitory concentration (IC50) was under 500 nM.

Turning to `Cc1cccnc1C#CC12CC1CN(c1cc(F)cc(C#N)c1)C2` (stereo not drawn) [Example Compound 9], the IC50 lay in the range of 1000 to 5000 nM.

Regarding `C(#CC12CC1CN(c1ccccc1)C2)c1ccccn1` (stereo not drawn) [Example Compound 10, 3-phenyl-1-(pyridin-2-ylethynyl)-3-azabicyclo[3.1.0]hexane], the IC50 is under 500 nM.

In the case of `N#Cc1cc(F)cc(N2CC3CC3(C#Cc3cccnn3)C2)c1` (stereo not drawn) [Example Compound 11, 3-fluoro-5-(1-(pyridazin-3-ylethynyl)-3-azabicyclo[3.1.0]hexan-3-yl)benzonitrile], the half-inhibitory concentration (IC50) was under 500 nM.

For `N#Cc1cc(F)cc(N2CC3CC3(C#Cc3ccnc(Cl)c3)C2)c1` (stereo not drawn) [Example Compound 12, 3-(1-((2-chloropyridin-4-yl)ethynyl)-3-azabicyclo[3.1.0]hexan-3-yl)-S-fluorobenzonitrile], the IC50 is under 500 nM.

As to `Cc1cccc(C#CC23CC2CN(c2cc(F)cc(C#N)c2)C3)n1` (stereo not drawn) [Example Compound 13, 3-fluoro-5-(1-((6-methylpyridin-2-yl)ethynyl)-3-azabicyclo[3.1.0]hexan-3-yl) benzonitrile], the IC50 was under 500 nM.

As for `COc1cccc(C#CC23CC2CN(c2cc(F)cc(C#N)c2)C3)n1` (stereo not drawn) [Example Compound 15, 3-fluoro-5-(1-((6-methoxypyridin-2-yl)ethynyl)-3-azabicyclo[3.1.0]hexan-3-yl) benzonitrile], the IC50 was under 500 nM.

Turning to `Fc1ccccc1N1CC2CC2(C#Cc2ccccn2)C1` (stereo not drawn) [Example Compound 16, 3-(2-fluorophenyl)-1-(pyridin-2-ylethynyl)-3-azabicyclo[3.1.0]hexane], the concentration for half-maximal inhibition (IC50) was under 500 nM.

In the case of `Clc1ccccc1N1CC2CC2(C#Cc2ccccn2)C1` (stereo not drawn) [Example Compound 17, 3-(2-chlorophenyl)-1-(pyridin-2-ylethynyl)-3-azabicyclo[3.1.0]hexane], the 50% inhibitory concentration (IC50) is under 500 nM.

Consider `Clc1cccc(N2CC3CC3(C#Cc3ccccn3)C2)c1` (stereo not drawn) [Example Compound 18, 3-(3-chlorophenyl)-1-(pyridin-2-ylethynyl)-3-azabicyclo[3.1.0]hexane], for which the concentration for half-maximal inhibition (IC50) was under 500 nM.

With `Clc1ccc(N2CC3CC3(C#Cc3ccccn3)C2)cc1` (stereo not drawn) [Example Compound 19, 3-(4-chlorophenyl)-1-(pyridin-2-ylethynyl)-3-azabicyclo[3.1.0]hexane], the IC50 was in the range of 500 to 1000 nM.

`Fc1cc(Cl)cc(N2CC3CC3(C#Cc3ccccn3)C2)c1` (stereo not drawn) [Example Compound 20, 3-(3-chloro-5-fluorophenyl)-1-(pyridin-2-ylethynyl)-3-azabicyclo[3.1.0]hexane]: the IC50 was under 500 nM.

Take `Fc1cc(Cl)ccc1N1CC2CC2(C#Cc2ccccn2)C1` (stereo not drawn) [Example Compound 21, 3-(4-chloro-2-fluorophenyl)-1-(pyridin-2-ylethynyl)-3-azabicyclo[3.1.0]hexane]: the half-maximal inhibitory concentration (IC50) was 500 to 1000 nM.

Consider `Fc1cc(N2CC3CC3(C#Cc3ccccn3)C2)ccc1Cl` (stereo not drawn) [Example Compound 22, 3-(4-chloro-3-fluorophenyl)-1-(pyridin-2-ylethynyl)-3-azabicyclo[3.1.0]hexane], for which the concentration for half-maximal inhibition (IC50) was 500 to 1000 nM.

For the molecule `N#Cc1ccnc(N2CC3CC3(C#Cc3ccccn3)C2)c1` (stereo not drawn) [Example Compound 23, 2-(1-(pyridin-2-ylethynyl)-3-azabicyclo[3.1.0]hexan-3-yl)isonicotinonitrile], the IC50 is under 500 nM.

As for `C(#CC12CC1CN(c1ccc3[nH]ccc3n1)C2)c1ccccn1` (stereo not drawn) [Example Compound 24, 5-(1-(pyridin-2-ylethynyl)-3-azabicyclo[3.1.0]hexan-3-yl)-1H-pyrrolo[3,2-b]pyridine], the concentration for half-maximal inhibition (IC50) was in the range of 1000 to 5000 nM.

On to `C(#CC12CC1CN(c1ccc3[nH]cnc3c1)C2)c1ccccn1` (stereo not drawn) [Example Compound 25, 5-(1-(pyridin-2-ylethynyl)-3-azabicyclo[3.1.0]hexan-3-yl)-1H-benzo[d]imidazole], for which the IC50 lay within 1000 to 5000 nM.

On to `O=C(c1cccc(Cl)c1)N1CC2CC2(C#Cc2ccccn2)C1` (stereo not drawn) [Example Compound 26, (3-chlorophenyl)(1-(pyridin-2-ylethynyl)-3-azabicyclo[3.1.0]hexan-3-yl)methanone], for which the concentration for half-maximal inhibition (IC50) was under 500 nM.

For the molecule `O=C(c1ccccn1)N1CC2CC2(C#Cc2ccccn2)C1` (stereo not drawn) [Example Compound 27, pyridin-2-yl(1-(pyridin-2-ylethynyl)-3-azabicyclo[3.1.0]hexan-3-yl)methanone], the 50% inhibitory concentration (IC50) was under 500 nM.

As for `O=C(c1ccccc1)N1CC2CC2(C#Cc2ccccn2)C1` (stereo not drawn) [Example Compound 28, phenyl(1-(pyridin-2-ylethynyl) 3-azabicyclo[3.1.0]hexan-3-yl)methanone], the 50% inhibitory concentration (IC50) is under 500 nM.

Turning to `O=C(Cc1ccccc1)N1CC2CC2(C#Cc2ccccn2)C1` (stereo not drawn) [Example Compound 29, 2-phenyl-1-(1-(pyridin-2-ylethynyl)-3-azabicyclo[3.1.0]hexan-3-yl)ethanone], the IC50 is under 500 nM.

As for `O=C(c1ccccc1Cl)N1CC2CC2(C#Cc2ccccn2)C1` (stereo not drawn) [Example Compound 30, (2-chlorophenyl) (1-(pyridin-2-ylethynyl)-3-azabicyclo[3.1.0]hexan-3-yl)methanone], the IC50 was under 500 nM.

In the case of `CCCCC(=O)N1CC2CC2(C#Cc2ccccn2)C1` (stereo not drawn) [Example Compound 31, 1-(1-(pyridin-2-ylethynyl)-3-azabicyclo[3.1.0]hexan-3-yl)pentan-1-one], the IC50 is under 500 nM.

Take `O=C(CCc1ccccc1)N1CC2CC2(C#Cc2ccccn2)C1` (stereo not drawn) [Example Compound 32, 3-phenyl-1-(1-(pyridin-2-ylethynyl)-3-azabicyclo[3.1.0]hexan-3-yl)propan-1-one]: the IC50 was under 500 nM.

For `O=C(c1ccc(Cl)cc1)N1CC2CC2(C#Cc2ccccn2)C1` (stereo not drawn) [Example Compound 33, (4-chlorophenyl)(1-(pyridin-2-ylethynyl)-3-azabicyclo[3.1.0]hexan-3-yl)methanone], the IC50 was under 500 nM.

For `O=S(=O)(c1cccc(Cl)c1)N1CC2CC2(C#Cc2ccccn2)C1` (stereo not drawn) [Example Compound 34, 3-((3-chlorophenyl)sulfonyl)-1-(pyridin-2-ylethynyl)-3-azabicyclo[3.1.0]hexane], the 50% inhibitory concentration (IC50) is under 500 nM.

With `O=S(=O)(c1ccc(Cl)cc1)N1CC2CC2(C#Cc2ccccn2)C1` (stereo not drawn) [Example Compound 35, 3-((4-chlorophenyl)sulfonyl)-1-(pyridin-2-ylethynyl)-3-azabicyclo[3.1.0]hexane], the IC50 is under 500 nM.

Regarding `O=S(=O)(c1ccccc1Cl)N1CC2CC2(C#Cc2ccccn2)C1` (stereo not drawn) [Example Compound 36, 3-((2-chlorophenyl)sulfonyl)-1-(pyridin-2-ylethynyl)-3-azabicyclo[3.1.0]hexane], the concentration for half-maximal inhibition (IC50) is under 500 nM.

Regarding `Cc1ccc(S(=O)(=O)N2CC3CC3(C#Cc3ccccn3)C2)cc1` (stereo not drawn) [Example Compound 37, 1-(pyridin-2-ylethynyl)-3-tosyl-3-azabicyclo[3.1.0]hexane], the IC50 was under 500 nM.

As to `N#Cc1cccc(N2CC3CC3(C#Cc3ccccn3)C2)n1` (stereo not drawn) [Example Compound 38, 6-(1-(pyridin-2-ylethynyl)-3-azabicyclo[3.1.0]hexan-3-yl)picolinonitrile], the IC50 is under 500 nM.

On to `Cc1nc(C#CC23CC2CN(c2cc(F)cc(C#N)c2)C3)cs1` (stereo not drawn) [Example Compound 39, 3-fluoro-5-(1-((2-methylthiazol-4-yl)ethynyl)-3-azabicyclo[3.1.0]hexan-3-yl)benzonitrile], for which the half-maximal inhibitory concentration (IC50) was under 500 nM.

Consider `N#Cc1cccc(N2CC3CC3(C#Cc3ccccn3)C2)c1` (stereo not drawn) [Example Compound 40, 3-(1-(pyridin-2-ylethynyl)-3-azabicyclo[3.1.0]hexan-3-yl)benzonitrile], for which the half-inhibitory concentration (IC50) is under 500 nM.
